These results are taken from publication PMC3197605, “Expression, Purification and Characterization of Arginase from Helicobacter pylori in Its Apo Form” (PLoS ONE, 2011).

Read-outs that look alike come from different tables or passages of the source.

The assay addresses T1, arginase (RocF) (Helicobacter pylori, UniProt O25949).
T1 construct: gene HP_1399; RocF with C-terminal His6 tag, apo form, expressed in E. coli BL21 (DE3)
Put plainly: colorimetric arginase assay (ninhydrin detection of L-ornithine), purified apo-RocF heat-activated with Co2+, pH […]. Type of assay: biochemical.

T1 sequence (O25949 entry or part of it): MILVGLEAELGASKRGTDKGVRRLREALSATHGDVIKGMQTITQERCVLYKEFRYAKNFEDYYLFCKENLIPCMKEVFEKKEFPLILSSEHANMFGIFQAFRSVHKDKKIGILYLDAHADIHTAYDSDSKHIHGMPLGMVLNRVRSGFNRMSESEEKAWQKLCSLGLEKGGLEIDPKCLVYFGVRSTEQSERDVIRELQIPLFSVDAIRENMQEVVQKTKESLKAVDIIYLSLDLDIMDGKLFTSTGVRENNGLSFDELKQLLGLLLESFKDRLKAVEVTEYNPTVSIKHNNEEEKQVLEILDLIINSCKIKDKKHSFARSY

A word on the IC50: it is the concentration at which inhibition is half-maximal. Regarding `N=C(NO)NCC[C@H](N)C(=O)O` [nor-NOHA], the IC50 (read-out: IC50) came to 500 µM. Regarding `N[C@@H](CSCCB(O)O)C(=O)O` [BEC, S-(2-boronoethyl)-L-Cysteine], the IC50 turned out to be 1000 µM.
